Where two headings read alike, the source gives them in different places.
Key:
[1] = Plasma Stability Assay of Example A3, mouse plasma; details: 5 μM, 37° C., % of prodrug compound remaining
[2] = assay type: physicochemical; details: DI water, 25° C., 0.5 mM
[3] = assay type: physicochemical; details: SGF with pepsin, pH 1.5, 37° C., 0.5 mM
[4] = 5 μM
[5] = Plasma Stability Assay of Example A3, human plasma; details: 5 μM, 37° C., % of prodrug compound remaining

Row | SMILES | Mouse Plasma Prodrug (%) ([1]; 0 min) | Mouse Plasma Prodrug (%) ([1]; 15 min) | Mouse Plasma Prodrug (%) ([1]; 30 min) | Mouse Plasma Prodrug (%) ([1]; 60 min) | Mouse Plasma Prodrug (%) ([1]; 120 min) | Mouse Plasma Prodrug (%) ([1]; 240 min) | Condition 2 Conversion (%) ([2]; time 1 min) | Condition 2 Conversion (%) ([2]; time 5 min) | Condition 2 Conversion (%) ([2]; time 30 min) | Mouse Plasma Compound 001 (%) ([4]; 15 min) | Mouse Plasma Compound 001 (%) ([4]; 30 min) | Mouse Plasma Compound 001 (%) ([4]; 60 min) | Mouse Plasma Compound 001 (%) ([4]; 120 min) | Mouse Plasma Compound 001 (%) ([4]; 240 min) | Human Plasma Prodrug (%) ([5]; 0 min) | Human Plasma Prodrug (%) ([5]; 15 min) | Human Plasma Prodrug (%) ([5]; 30 min) | Human Plasma Prodrug (%) ([5]; 60 min) | Human Plasma Prodrug (%) ([5]; 120 min) | Human Plasma Prodrug (%) ([5]; 240 min) | further results
1 | COc1ccc([C@@]23CCC(OC(=O)C(C)(C)C)=C[C@@H]2N(C)CC3)cc1OC [Compound 309, [(3aS,7aS)-3a-(3,4-dimethoxyphenyl)-1-methyl-3,4,5,7a-tetrahydro-2H-indol-6-yl]2,2-dimethylpropanoate] | 100.0% | 34.6% | 24.9% | 8.2% | 0.0% | 0.0% | 0% | 0% | 0% | 61.7% | 63.7% | 62.6% | 63.2% | 60.9% | 100.0% | 64.5% | 41.4% | 16.5% | 3.6% | 2.0% | Condition 2 Conversion (%) ([2]; time 1 h): 0%; Condition 2 Conversion (%) ([2]; time 4 h): 0%; Condition 2 Conversion (%) ([2]; time 24 h): 0%; Condition 1 Conversion (%) ([3]; time 1 min): 0%; Condition 1 Conversion (%) ([3]; time 5 min): 0%; Condition 1 Conversion (%) ([3]; time 30 min): 0%; Condition 1 Conversion (%) ([3]; time 1 h): 0%; Condition 1 Conversion (%) ([3]; time 4 h): 0%; Condition 1 Conversion (%) ([3]; time 24 h): 0%
2 | COc1ccc([C@@]23CCC(OC(=O)C4CC4)=C[C@@H]2N(C)CC3)cc1OC [Compound 312, [(3aS,7aS)-3a-(3,4-dimethoxyphenyl)-1-methyl-3,4,5,7a-tetrahydro-2H-indol-6-yl]cyclopropanecarboxylate] | 100.0% | 3.5% | 1.6% | 2.2% | 2.8% | 0.8% | 0% | 0% | 0% | 66.1% | 70.8% | 64.4% | 61.7% | 61.5% | 100.0% | 8.1% | 6.2% | 20.9% | 10.5% | 13.8% | Condition 2 Conversion (%) ([2]; time 1 h): 0%; Condition 2 Conversion (%) ([2]; time 4 h): 0%; Condition 2 Conversion (%) ([2]; time 24 h): 0%; Condition 1 Conversion (%) ([3]; time 1 min): 0%; Condition 1 Conversion (%) ([3]; time 5 min): 0%; Condition 1 Conversion (%) ([3]; time 30 min): 0%; Condition 1 Conversion (%) ([3]; time 1 h): 0%; Condition 1 Conversion (%) ([3]; time 4 h): 0%; Condition 1 Conversion (%) ([3]; time 24 h): 0%
3 | C/C=C(\C)C(=O)OC1=C[C@@H]2N(C)CC[C@]2(c2ccc(OC)c(OC)c2)CC1 [Compound 313, [(3aS,7aS)-3a-(3,4-dimethoxyphenyl)-1-methyl-3,4,5,7a-tetrahydro-2H-indol-6-yl](E)-2-methylbut-2-enoate] | 100.0% | 2.1% | 0.7% | 0.1% | 0.0% | 0.0% | 0% | 0% | 0% | 37.2% | 36.3% | 37.1% | 35.2% | 35.0% | 100.0% | 62.2% | 35.1% | 12.8% | 2.4% | 0.4% | Condition 2 Conversion (%) ([2]; time 1 h): 0%; Condition 2 Conversion (%) ([2]; time 4 h): 0%; Condition 2 Conversion (%) ([2]; time 24 h): 0%; Condition 1 Conversion (%) ([3]; time 1 min): 0%; Condition 1 Conversion (%) ([3]; time 5 min): 0%; Condition 1 Conversion (%) ([3]; time 30 min): 0%; Condition 1 Conversion (%) ([3]; time 1 h): 0%; Condition 1 Conversion (%) ([3]; time 4 h): 0%; Condition 1 Conversion (%) ([3]; time 24 h): 0%
4 | C=C(C)C(=O)OC1=C[C@@H]2N(C)CC[C@]2(c2ccc(OC)c(OC)c2)CC1 [Compound 315, [(3aS,7aS)-3a-(3,4-dimethoxyphenyl)-1-methyl-3,4,5,7a-tetrahydro-2H-indol-6-yl]-2-methylprop-2-enoate] | 100.0% | 5.3% | 2.4% | 1.3% | 2.0% | 1.9% | 0% | 0% | 0% | 60.4% | 61.9% |  | 57.3% | 55.8% | 100.0% | 16.6% | 2.3% | 0.5% | 0.2% | 0.0% | Condition 2 Conversion (%) ([2]; time 1 h): 0%; Condition 2 Conversion (%) ([2]; time 4 h): 0%; Condition 2 Conversion (%) ([2]; time 24 h): 0%; Condition 1 Conversion (%) ([3]; time 1 min): 0%; Condition 1 Conversion (%) ([3]; time 5 min): 0%; Condition 1 Conversion (%) ([3]; time 30 min): 0%; Condition 1 Conversion (%) ([3]; time 1 h): 0%; Condition 1 Conversion (%) ([3]; time 4 h): 0%; Condition 1 Conversion (%) ([3]; time 24 h): 0%
5 | COc1ccc([C@@]23CCC(OC(=O)c4ccc(C#N)cc4)=C[C@@H]2N(C)CC3)cc1OC [Compound 354, (3aS,7aS)-3a-(3,4-dimethoxyphenyl)-1-methyl-2,3,3a,4,5,7a-hexahydro-1H-indol-6-yl4-cyanobenzoate] | 100% | 5% | 7% | 5% | 4% | 0% |  |  |  | 32.79% | 32.69% | 29.45% | 27.14% | 20.12% | 100% | 93% | 72% | 42% | 13% | 1% | Mouse Plasma Compound 001 (%) ([4]; 0 min): 33.27%
6 | COc1ccc([C@@]23CCC(OC(=O)c4cccc(C(C)(C)C)c4)=C[C@@H]2N(C)CC3)cc1OC [Compound 375, (3aS,7aS)-3a-(3,4-dimethoxyphenyl)-1-methyl-2,3,3a,4,5,7a-hexahydro-1H-indol-6-yl3-(tert-butyl)benzoate] | 100% | 11% | 2% | 0% | 0% | 0% |  |  |  | 45.54% | 45.99% | 41.28% | 42.28% | 29.74% | 100% | >99% | >99% | 97% | 57% | 26% | Mouse Plasma Compound 001 (%) ([4]; 0 min): 41.82%

Source: patent US20250051277A1, “DELIVERY OF THERAPEUTIC ALKALOID COMPOUNDS” (Sensorium Therapeutics, Inc., priority 2021, published 2025)
